Measurements published in paper PMC5772633 (Scientific Reports, 2018).
“And” between values parts separate entries of the source, which are not always exact repeats. Identical values can stand only once.

Assays:
D3R = conditions: Table 1; cited from earlier work
[1] = set-up: method as in PMID 27715007; conditions: in vivo; cited from earlier work
[2] = molecular target: T1, human D3 receptor mutant C114L (Homo sapiens, UniProt P35462, C114L); test: Radioligand binding assay, D3R mutant C114L; conditions: two replicas
T1 construct: Flag tag (N); His tag (C); expressed in transfected cells; host or cells: SF9 insect cells (membranes)
Method: (§1) The D3R mutations were located in the OBS or the vicinity of the OBS and were performed on nine different residues (Fig. 1).
(§2) Point mutants were made by site-directed mutagenesis using 0.5 μl Takara’s PrimeStar Hot start polymerase with 20ng D3R wild type template plasmid DNA, 5 × PrimeStar buffer, 4 μl dNTP mix (2.5 mM each dNTP), plus 0.5 μg forward and reverse primers. 18 cycles were performed at 98 °C for 30 seconds, 55 °C for 30 seconds and 72 °C for 6.5 minutes. The template was degraded with DpnI for 1 hr and transformed into DH5α competent cells.
(§3) Mutants were expressed in SF9 insect cells for 48 hrs with an approximate MOI of 5. A list of mutagenesis primers used can be found in Table S3.
(§4) Binding assays were performed on membranes prepared from transiently transfected human D3 receptor mutants in SF9 insect cells. Frozen cell paste was homogenized by Polytron in 50 mM Tris HCl buffer (pH 7.4 at 4 degrees C) containing 2.0 mM MgCl2. […] 7-OH-DPAT levels were determined by liquid scintillation counting of the filterplates in Ecolume scintillation fluid. […] Ki values were calculated according to the Cheng- Prusoff equation, Ki = IC50/(1 + (L/Kd)), where L is the concentration of the radioligand used in the experiment and the Kd value is the dissociation constant for the radioligand at the mutant receptor (determined previously by saturation analysis).

[3] = molecular target: human D3 receptor mutant Y373F (Homo sapiens, UniProt P35462, Y373F); test: Radioligand binding assay, D3R mutant Y373F; conditions: two replicas
Method: as §1, §2, §3, §4

[4] = molecular target: T2, human D3 receptor mutant S182I (Homo sapiens, UniProt P35462, S182I); test: Radioligand binding assay, D3R mutant S182I; conditions: two replicas
T2 construct: Flag tag (N); His tag (C); expressed in transfected cells; host or cells: SF9 insect cells (membranes)
Method: as §1, §2, §3, §4

[5] = molecular target: T3, human D3 receptor mutant I183F (Homo sapiens, UniProt P35462, I183F); test: Radioligand binding assay, D3R mutant I183F
T3 construct: Flag tag (N); His tag (C); expressed in transfected cells; host or cells: SF9 insect cells (membranes)
Method: as §1, §2, §3, §4

[6] = molecular target: T4, human D3 receptor mutant Y365L (Homo sapiens, UniProt P35462); test: Radioligand binding assay, D3R mutant Y365L; conditions: two replicas
T4 construct: Flag tag (N); His tag (C); expressed in transfected cells; host or cells: SF9 insect cells (membranes)
Method: as §1, §2, §3, §4

[7] = molecular target: T5, human D3 receptor mutant V189I (Homo sapiens, UniProt P35462, V189I); test: Radioligand binding assay, D3R mutant V189I; conditions: two replicas
T5 construct: Flag tag (N); His tag (C); expressed in transfected cells; host or cells: SF9 insect cells (membranes)
Method: as §1, §2, §3, §4

[8] = molecular target: T6, human D3 receptor mutant Y36F (Homo sapiens, UniProt P35462, Y36F); test: Radioligand binding assay, D3R mutant Y36F; conditions: two replicas
T6 construct: Flag tag (N); His tag (C); expressed in transfected cells; host or cells: SF9 insect cells (membranes)
Method: as §1, §2, §3, §4

[9] = molecular target: T7, human D3 receptor mutant Y36L (Homo sapiens, UniProt P35462, Y36L); test: Radioligand binding assay, D3R mutant Y36L; conditions: two replicas
T7 construct: Flag tag (N); His tag (C); expressed in transfected cells; host or cells: SF9 insect cells (membranes)
Method: as §1, §2, §3, §4

[10] = molecular target: human D3 receptor triple mutant Y36L, S182I, V350I (Homo sapiens, UniProt P35462, S182I/V350I/Y36L); test: Radioligand binding assay, D3R triple mutant; conditions: two replicas
Method: as §1, §2, §3, §4

D2R = system: D2R; set-up: method as in PMID 27715007; conditions: cited from earlier work
wt-D3R = molecular target: T8, wt-D3R (Homo sapiens, UniProt P35462); test: Radioligand ([3H]7-OH-DPAT) binding assay, wild type D3R membranes from SF9 cells
T8 construct: Flag tag (N); His tag (C); expressed in transfected cells; host or cells: SF9 insect cells (membranes), pFastbac/baculovirus

[11] = molecular target: T9, human D3 receptor mutant V189A (Homo sapiens, UniProt P35462, V189A); test: Radioligand binding assay, D3R mutant V189A
T9 construct: Flag tag (N); His tag (C); expressed in transfected cells; host or cells: SF9 insect cells (membranes)
Method: as §1, §2, §3, §4

[12] = molecular target: T10, human D3 receptor mutant E90L (Homo sapiens, UniProt P35462, E90L); test: Radioligand binding assay, D3R mutant E90L; conditions: two replicas
T10 construct: Flag tag (N); His tag (C); expressed in transfected cells; host or cells: SF9 insect cells (membranes)
Method: as §1, §2, §3
Binding assays were performed on membranes prepared from transiently transfected human D3 receptor mutants in SF9 insect cells. Frozen cell paste was homogenized by Polytron in 50 mM Tris HCl buffer (pH 7.4 at 4 degrees C) containing 2.0 mM MgCl2. The cell membranes were spun in a high-speed centrifuge at 40,000 × g for ten minutes. The final pellet was re-suspended in assay buffer (50 mM Tris buffer, 120 mM NaCl, 5 mM MgCl2, 5 mM KCl, 2 mM CaCl2, pH 7.4 at 37 °C). […] 7-OH-DPAT levels were determined by liquid scintillation counting of the filterplates in Ecolume scintillation fluid.

[13] = molecular target: T11, human D3 receptor mutant E90Q (Homo sapiens, UniProt P35462, E90Q); test: Radioligand binding assay, D3R mutant E90Q; conditions: two replicas
T11 construct: Flag tag (N); His tag (C); expressed in transfected cells; host or cells: SF9 insect cells (membranes)
Method: as §1, §2, §3, §4

SMILES	Ki (D3R) [nM]	locomotor or catalepsy side effects [1]	Ki [2]	Ki [3]	Ki [4]	Ki ([5]; D3R mutant I183F, two replicas)	decrease in affinity (fold-shift Ki mutant/Ki wt) ([5]; I183F mutant vs wt D3R) [fold]	Ki [6]	Ki [7]	Ki [8]	Ki [9]	Ki [10]	D2R receptor occupancy (D2R) [%]	Ki (wt-D3R; wild type D3R, Table 1) [nM]	ΔGexp (experimental binding free energy) (wt-D3R; wt D3R) [kcal/mol]	Ki ([11]; D3R mutant V189A, two replicas)	decrease in affinity (fold-shift Ki mutant/Ki wt) ([11]; V189A mutant vs wt D3R) [fold]	Ki [12]	Ki [13]
CCc1cc(Cl)c(OC)c(C(=O)NC[C@@H]2CCCN2CC)c1O [Compound 2, Eticlopride]	0.24	–	–	–	–	–	–	–	–	–	–	–	–	–	–	–	–	–	–
CCN1CCO[C@@H](c2ccc(NS(=O)(=O)c3ccc(C(C)C)cc3)c(C)c2)C1 [Compound 1, PF-4363467]	–	lack of locomotor or catalepsy side effects	1.6 nM and 1.3 nM	14.8 nM and 15.8 nM	3.6 nM and 2.1 nM	55 nM and 43 nM	14	13.1 nM and 12.5 nM	8.2 nM and 6.5 nM	3.2 nM and 2.5 nM	22 nM and 13 nM	29.5 nM and 22 nM	86	3.4 ± 0.4	-11.6	24 nM and 30 nM	8	4.9 nM and 3.7 nM	6 nM and 5.4 nM
